Measured values as given in patent US8921546B2, “Imidazolothiazole compounds for the treatment of disease” (Ambit Biosciences Corporation, priority 2006, dated 2014).
Structures can show the parent of a compound that is named as a salt. Where two headings read alike, the source gives them in different places.

Key:
[1] = target: T1, FLT3 (Homo sapiens, UniProt P36888); assay: Binding constant (Kd) measurement, phage-displayed kinase competition binding assay, FLT3
T1 construct: made in house
T1 sequence (P36888 27-993): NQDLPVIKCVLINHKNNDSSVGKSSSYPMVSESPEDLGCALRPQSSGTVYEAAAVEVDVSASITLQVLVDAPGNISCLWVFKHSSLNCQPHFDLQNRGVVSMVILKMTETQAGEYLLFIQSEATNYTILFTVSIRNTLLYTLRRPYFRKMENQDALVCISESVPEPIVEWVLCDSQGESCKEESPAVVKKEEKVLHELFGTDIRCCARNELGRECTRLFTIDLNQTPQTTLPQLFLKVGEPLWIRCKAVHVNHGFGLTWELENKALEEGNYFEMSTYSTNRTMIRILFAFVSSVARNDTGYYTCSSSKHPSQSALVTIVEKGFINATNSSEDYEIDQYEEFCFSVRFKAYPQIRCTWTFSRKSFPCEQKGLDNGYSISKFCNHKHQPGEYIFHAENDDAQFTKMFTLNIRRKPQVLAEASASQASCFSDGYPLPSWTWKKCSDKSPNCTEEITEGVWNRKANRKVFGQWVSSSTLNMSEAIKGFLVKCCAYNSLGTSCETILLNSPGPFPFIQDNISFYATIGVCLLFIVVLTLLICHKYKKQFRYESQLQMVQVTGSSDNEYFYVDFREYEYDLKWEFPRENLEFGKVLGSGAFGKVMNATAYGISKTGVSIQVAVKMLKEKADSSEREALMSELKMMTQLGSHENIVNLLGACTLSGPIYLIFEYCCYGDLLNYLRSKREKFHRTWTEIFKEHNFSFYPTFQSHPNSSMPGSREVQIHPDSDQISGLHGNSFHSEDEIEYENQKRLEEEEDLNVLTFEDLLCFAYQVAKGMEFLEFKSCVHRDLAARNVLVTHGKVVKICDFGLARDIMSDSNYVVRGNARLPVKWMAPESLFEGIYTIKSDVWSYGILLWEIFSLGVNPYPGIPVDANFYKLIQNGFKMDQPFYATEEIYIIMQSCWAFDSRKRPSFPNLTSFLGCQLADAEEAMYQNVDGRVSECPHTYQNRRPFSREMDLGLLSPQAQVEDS
Method in brief: (§1)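 Competition binding used human kinases fused to T7 phage and immobilized ATP-site ligands. Compound binding blocks kinase capture on the solid support. Bound phage-kinase was quantified by plaque assay or qPCR of the phage genome to give Kd.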

[2] = system: MV4-11 cells; assay: Cellular proliferation assay (MTS), MV4-11; type: cell-based; conditions: Homo sapiens
Method in brief: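 FLT3-ITD MV4-11 cells, 10,000/well in DMEM with 0.5% serum, exposed to compounds 3 days at 37 °C, 5% CO2. Viability read colorimetrically after 2 h MTS tetrazolium reduction; WT-FLT3 RS4-11 cells (20,000/well, RPMI 0.5% serum, 2 days) serve as control.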

[3] = target: T2, KIT (Homo sapiens, UniProt P10721); assay: Binding constant (Kd) measurement, phage-displayed kinase competition binding assay, KIT
T2 construct: made in house
Method in brief: as §1

[4] = target: T3, CSF1R (Homo sapiens, UniProt P07333); assay: Binding constant (Kd) measurement, phage-displayed kinase competition binding assay, CSF1R
T3 construct: made in house
Method in brief: as §1

[5] = MV4-11 cells, 72 hour incubation, MTS, read-out: Cellular Assay MV-proliferation IC50
[6] = read-out: Binding Assay FLT3 Kd

T2 sequence (P10721 26-976): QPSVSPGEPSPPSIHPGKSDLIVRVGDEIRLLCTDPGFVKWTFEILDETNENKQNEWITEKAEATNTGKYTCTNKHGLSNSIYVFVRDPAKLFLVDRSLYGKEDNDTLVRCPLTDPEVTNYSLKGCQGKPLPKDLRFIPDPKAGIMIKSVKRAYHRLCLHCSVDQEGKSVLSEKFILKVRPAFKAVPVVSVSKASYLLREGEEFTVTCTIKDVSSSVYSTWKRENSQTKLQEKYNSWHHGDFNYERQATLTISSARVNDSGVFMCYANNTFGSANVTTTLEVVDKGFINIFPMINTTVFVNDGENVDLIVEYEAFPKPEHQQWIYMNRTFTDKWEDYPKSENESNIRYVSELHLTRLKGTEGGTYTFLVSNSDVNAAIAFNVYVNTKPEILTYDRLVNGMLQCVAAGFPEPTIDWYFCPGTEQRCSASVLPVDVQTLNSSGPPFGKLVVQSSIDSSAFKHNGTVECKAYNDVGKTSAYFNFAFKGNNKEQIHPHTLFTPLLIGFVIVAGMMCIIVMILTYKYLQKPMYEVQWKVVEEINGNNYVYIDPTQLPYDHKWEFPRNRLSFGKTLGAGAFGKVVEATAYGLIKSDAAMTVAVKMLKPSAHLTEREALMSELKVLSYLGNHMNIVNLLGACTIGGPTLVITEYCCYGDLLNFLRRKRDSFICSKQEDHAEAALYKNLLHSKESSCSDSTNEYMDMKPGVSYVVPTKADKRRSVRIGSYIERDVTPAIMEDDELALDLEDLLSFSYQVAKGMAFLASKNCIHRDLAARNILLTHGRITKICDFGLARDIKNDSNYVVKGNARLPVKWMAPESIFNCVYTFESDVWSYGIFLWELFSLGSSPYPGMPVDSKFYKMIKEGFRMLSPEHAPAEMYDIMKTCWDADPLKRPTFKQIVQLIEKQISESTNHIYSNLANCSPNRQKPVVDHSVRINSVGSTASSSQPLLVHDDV
T3 sequence (P07333 20-972): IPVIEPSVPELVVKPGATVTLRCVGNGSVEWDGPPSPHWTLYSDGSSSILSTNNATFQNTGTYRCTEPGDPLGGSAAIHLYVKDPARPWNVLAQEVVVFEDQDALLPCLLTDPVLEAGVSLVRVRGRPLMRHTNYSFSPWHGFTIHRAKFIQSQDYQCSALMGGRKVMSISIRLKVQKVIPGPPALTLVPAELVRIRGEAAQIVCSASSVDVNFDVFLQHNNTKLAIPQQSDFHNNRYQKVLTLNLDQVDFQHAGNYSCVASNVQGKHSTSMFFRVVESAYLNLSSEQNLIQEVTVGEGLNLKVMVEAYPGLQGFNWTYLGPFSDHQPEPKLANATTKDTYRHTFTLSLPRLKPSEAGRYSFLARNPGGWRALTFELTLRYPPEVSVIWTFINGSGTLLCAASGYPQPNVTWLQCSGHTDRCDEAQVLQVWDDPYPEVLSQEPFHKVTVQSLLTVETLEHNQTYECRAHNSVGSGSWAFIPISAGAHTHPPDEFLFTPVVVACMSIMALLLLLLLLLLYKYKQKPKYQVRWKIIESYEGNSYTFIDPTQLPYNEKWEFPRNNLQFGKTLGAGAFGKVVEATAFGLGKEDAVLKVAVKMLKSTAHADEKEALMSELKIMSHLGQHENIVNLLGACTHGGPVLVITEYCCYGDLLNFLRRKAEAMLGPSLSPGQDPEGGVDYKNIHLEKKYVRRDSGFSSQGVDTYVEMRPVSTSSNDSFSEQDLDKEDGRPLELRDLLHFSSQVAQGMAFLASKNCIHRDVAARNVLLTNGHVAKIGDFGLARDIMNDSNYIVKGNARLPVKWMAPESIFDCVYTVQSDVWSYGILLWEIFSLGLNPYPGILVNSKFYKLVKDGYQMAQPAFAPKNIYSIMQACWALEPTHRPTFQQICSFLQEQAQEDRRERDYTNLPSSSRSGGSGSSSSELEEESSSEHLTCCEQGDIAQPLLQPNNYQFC

| Structure (SMILES) | Kd [1] [nM] | IC50 [2, 5] [nM] | Kd [3] [nM] | Kd [4] [nM] | Kd [1, 6] [nM] | IC50 ([2]; MV4-11, 72 h, read-out: Cellular Assay MV-proliferation IC50 (nM)) [nM] |
| --- | --- | --- | --- | --- | --- | --- |
| CC(C)(C)c1cc(NC(=O)Nc2ccc(-c3cn4c(n3)sc3cc(CN5CCOCC5)ccc34)cc2)no1 [Compound D8, 1-(5-tert-Butyl-isoxazol-3-yl)-3-[4-(7-morpholin-4-ylmethyl-imidazo[2,1-b][1,3]benzothiazol-2-yl)-phenyl]-urea hydrochloride] | < 10 | < 10 | < 10 | 10 to 100 | – | – |
| CCN1CCN(Cc2ccc3c(c2)sc2nc(-c4ccc(NC(=O)Nc5cc(C(C)(C)C)on5)cc4)cn23)CC1 [Compound D9, 1-(5-tert-Butyl-isoxazol-3-yl)-3-{4-[7-(4-ethyl-piperazin-1-ylmethyl)-imidazo[2,1-b][1,3]benzothiazol-2-yl]-phenyl}-urea hydrochloride] | – | – | < 10 | 10 to 100 | < 10 | < 10 |
| CC(C)(C)c1cc(NC(=O)Nc2ccc(-c3cn4c(n3)sc3cc(CN5CCCCC5)ccc34)cc2)no1 [Compound D10, 1-(5-tert-Butyl-isoxazol-3-yl)-3-[4-(7-piperidin-1-ylmethyl-imidazo[2,1-b][1,3]benzothiazol-2-yl)-phenyl]urea hydrochloride] | < 10 | < 10 | < 10 | 10 to 100 | – | – |
| O=C(CCc1ccc2c(c1)sc1nc(-c3ccc(NC(=O)N4CCOCC4)cc3)cn12)N1CCOCC1 [Compound E1, Morpholine-4-carboxylic acid {4-[7-(3-morpholin-4-yl-3-oxo-propyl)-benzo[d]imidazo[21-b]thiazol-2-yl]-phenyl}amide] | – | > 100 | > 1000 | > 1000 | 100 to 1000 | – |
| O=C(Cc1noc2ccccc12)Nc1ccc(-c2cn3c(n2)sc2cc(OCCN4CCOCC4)ccc23)cc1 [Compound E2, 2-benzo[d]isoxazol-3-yl-N-{4-[7-(2-morpholin-4-yl-ethoxy)-benzo[d]imidazo[2,1-b]thiazol-2-yl]-phenyl}-acetamide] | – | < 10 | 10 to 100 | > 1000 | < 10 | – |
| Cc1nc(C(F)(F)F)c(C(=O)Nc2ccc(-c3cn4c(n3)sc3cc(OCCN5CCOCC5)ccc34)cc2)s1 [Compound E3, 2-methyl-4-trifluoromethyl-thiazole-5-carboxylic acid {4-[7-(2-morpholin-4-yl-ethoxy)-benzo[d]imidazo[2,1-b]thiazol-2-yl]-phenyl}-amide] | – | > 100 | > 1000 | > 1000 | > 1000 | – |
| Cc1nc(-c2ccc(Cl)cc2)sc1C(=O)Nc1ccc(-c2cn3c(n2)sc2cc(OCCN4CCOCC4)ccc23)cc1 [Compound E4, 2-(4-chloro-phenyl)-4-methyl-thiazole-5-carboxylic acid {4-[7-(2-morpholin-4-yl-ethoxy)-benzo[d]imidazo[2,1-b]thiazol-2-yl]-phenyl}-amide] | – | 10 to 100 | 100 to 1000 | 100 to 1000 | 10 to 100 | – |
| O=C(Nc1ccc(-c2cn3c(n2)sc2cc(OCCN4CCOCC4)ccc23)cc1)Nc1ccc2c(c1)OCCO2 [Compound F1, 1-(2,3-Dihydro-benzo[1,4]dioxin-6-yl)-3-{4-[7-(2-morpholin-4-yl-ethoxy)-benzo[d]imidazo[2,1-b]thiazol-2-yl]-phenyl}-urea] | – | < 10 | < 10 | 100 to 1000 | < 10 | – |
| CC(C)(C)c1ccc(NC(=O)Nc2ccc(-c3cn4c(n3)sc3cc(OCCN5CCOCC5)ccc34)cc2)cc1 [Compound F2, 1-(4-tert-Butyl-phenyl)-3-{4-[7-(2-morpholin-4-yl-ethoxy)-benzo[d]imidazo[2,1-b]thiazol-2-yl]-phenyl}-urea] | – | < 10 | < 10 | 10 to 100 | < 10 | – |
| Cc1nc2cc(NC(=O)Nc3ccc(-c4cn5c(n4)sc4cc(OCCN6CCOCC6)ccc45)cc3)ccc2s1 [Compound F8, 1-(2-methyl-benzothiazol-5-yl)-3-{4-[7-(2-morpholin-4-yl-ethoxy)-benzo[d]imidazo[2,1-b]thiazol-2-yl]-phenyl}-urea] | – | < 10 | 10 to 100 | 100 to 1000 | < 10 | – |
